This is an account of results in US20150296781A1, “ACRYLATE/METHACRYLATE-BASED TRIBLOCK COPOLYMER/ANTHRANILIC DIAMIDE COMPOSITIONS FOR PROPAGULE COATING” (priority 2013, published 2015).

The subject of the assay is 2nd instar larva of Spodoptera frugiperda. The assay can be described thus: Laboratory test with 2nd instar larva of Spodoptera frugiperda on maize leaves. In kind it is in vivo.

Structures are written as SMILES.

`CNC(=O)c1cc(Cl)cc(C)c1NC(=O)c1cc(Br)nn1-c1ncccc1Cl` [Compound 2, 3-bromo-N-[4-chloro-2-methyl-6-[(methylamino)carbonyl]phenyl]-1-(3-chloro-2-pyridinyl)-1H-pyrazole-5-carboxamide]: the “concentration per g of leaf tissue resulting in 50% mortality within 72 h” value is listed as 0.033 micrograms per g of leaf tissu and the “concentration per g of tissue needed to achieve 100% mortality within 72 h” value is 0.037 micrograms per g of tissue.
